# Results published in a melting point compilation (Tetko et al.).
row,melting point,SMILES
1,266 to 270 °C,Oc1ccnc2cc(C(F)(F)F)ccc12
2,-112 °C,C=COC(C)(C)C
3,-50 °C,FC(F)(F)C(F)(F)C(F)(F)C(F)(F)N(C(F)(F)C(F)(F)C(F)(F)C(F)(F)F)C(F)(F)C(F)(F)C(F)(F)C(F)(F)F
4,184 to 187 °C,c1ccc(P(c2ccccc2)c2ccccc2Oc2ccccc2P(c2ccccc2)c2ccccc2)cc1
5,93 to 97 °C,O=C(Cl)c1ccc(N=Nc2ccccc2)cc1
6,85 °C,O=C(O)C(=S)CC1CCCC(CC(=S)C(=O)O)C1 (centres undefined)
7,32.5 °C,O=c1ccocc1
8,288 °C,COC(=O)Nc1nc2ccc(C(=O)c3ccccc3)cc2[nH]1
9,227 °C,Cc1cc(=O)oc2cc(N)ccc12
10,71 to 72 °C,CC1(C)C2CCC(O2)C(Cl)C1O (centres undefined)
11,300 °C,Nc1nc(=O)c2[nH]c(=S)[nH]c2[nH]1
12,191 to 192 °C,CC1(c2ccccc2)CC(C(=NNC(O)=S)c2cc3ccccc3o2)C1 (centres undefined)
13,58.3 to 59.9 °C,O=C(Cc1ccc(Oc2ccccc2)cc1)c1ccccc1
14,259 to 260 °C,CCOc1cc2c(cc1OCC)C(CC(=O)O)NCC2 (centres undefined)
15,147 °C,CC(C)(C)c1ccc2cc3ccccc3cc2c1
16,98 to 99 °C,O=C(C=Cc1ccc(-c2ccccc2)o1)c1ccccc1
17,46 °C,Brc1cccc2ncccc12
18,102 °C,S=C1SCN(Cc2ccccc2)CN1Cc1ccccc1
19,147 °C,Oc1ccccc1/C=C/c1ccccc1
20,149 °C,CCc1ccc2cc(O)c(O)cc2c1
21,93.5 °C,Cc1c(Cl)c(Cl)cc(Cl)c1Cl
22,-26 °C,FC(F)(F)c1ccc(Cl)cc1Cl
23,158 °C,COC(=O)C(c1ccccc1Cl)N1CCc2sccc2C1 (centres undefined)

row,melting point,SMILES
1,187 °C,CCC(c1ccc(O)cc1)C(CC)c1ccc(O)cc1 (centres undefined)
2,255 °C,N#C/C(=N\Nc1ccc(O)cc1)c1nc2ccccc2[nH]1
3,78 °C,COc1cc(C)c(CCl)cc1CCl
4,43.7 to 44.4 °C,COC1OC(=O)c2ccccc21 (centres undefined)
5,166 °C,O=C(Cc1ccccc1[N+](=O)[O-])c1ccccc1[N+](=O)[O-]
6,-7 °C,Cc1nonc1C
7,107 to 108 °C,O=C(NC(Cc1ccccc1)C(=O)CCl)OCc1ccccc1 (centres undefined)
8,136 to 139 °C,O=C(c1ccc(F)cc1)[C@H]1CCCC[C@H]1C(=O)O (relative stereo)
9,153 °C,CC(C)(C)C(O)C(=Cc1ccc(Cl)cc1)n1cncn1 (centres undefined)
10,60 to 62 °C,O=C(c1ccc(F)cc1)N1CCCCC1
11,98 °C,COc1ccc(CCC(=O)O)cc1OC
12,67 to 70 °C,O=[N+]([O-])c1ccc(Cl)c(N=C=S)c1
13,151 °C,CCOC(=O)c1nn(-c2ccc(F)cc2)c(-c2cccs2)c1S(=O)(=O)c1ccccc1
14,150 °C,Cc1nc2sccn2c1C(=O)NN
15,131 °C,Cc1cc(C(C)(C)C)cc(C)c1CC1=NCCN1
16,185 °C,CC(C)c1cc(C(C)C)c(-c2ccccc2P(C2CCCCC2)C2CCCCC2)c(C(C)C)c1
17,151 to 153 °C,CCOC(=O)c1cnc2cc(-c3cccs3)nn2c1C
18,300 °C,Cn1c(N)c(N=O)c(=O)[nH]c1=O
19,190 °C,O=C1Nc2c(Cl)cccc2C1=O
20,81 to 83 °C,Cc1nsc(-c2ccc(Cl)cc2)n1
21,196 °C,Cc1cc(O)c2c(c1)C(=O)c1cccc(O)c1C2=O
22,123 to 128 °C,C(=C\P(c1ccccc1)c1ccccc1)/P(c1ccccc1)c1ccccc1
23,155 °C,O=C(CCCN1CCC(O)(c2ccc(Br)cc2)CC1)c1ccc(F)cc1

row,melting point,SMILES
1,145 °C,Nc1ccc(CC(=O)c2ccc(N)cc2)cc1
2,52 to 54 °C,COc1cc(C(C)=O)ccc1F
3,140 to 144 °C,CCOC(=O)c1cc2cc3c4c(c2oc1=O)CCCN4CCC3
4,68 °C,CCOC(=O)C(C)(C#N)c1ccccc1[N+](=O)[O-] (centres undefined)
5,222 °C,O=C1OC(OC2OC(=O)c3ccccc32)c2ccccc21 (centres undefined)
6,204 °C,CC(=O)c1nn(-c2ccccc2[N+](=O)[O-])c(=NC(=O)c2ccccc2)s1
7,-68 °C,CCCCOCCOCCO
8,159 to 160 °C,NC(=S)Nc1cccnc1
9,9 °C,CC/C=C/C(=O)O
10,175 °C,O=C(O)Cc1cccc(CC(=O)O)c1
11,-46 °C,CCOC(=O)CC(O)(CC(=O)OCC)C(=O)OCC
12,103 to 105 °C,O=C(CCl)N(c1ccccc1)C1CCCCC1
13,182 °C,Nc1cccc(-n2ccccc2=O)c1
14,35 °C,N#CCc1cc(F)cc(F)c1
15,163 to 168 °C,NC(=S)Nc1ccc(F)cc1F
16,38 to 40 °C,Cc1ccc(S(=O)(=O)Cl)cc1[N+](=O)[O-]
17,-69.1 °C,CCCCOCCOCCCC
18,25 °C,COc1ccc(OC)c(F)c1
19,92.5 °C,CCOCOc1ccc(C(=O)Nc2cccc(Cl)c2Cl)cc1
20,138 °C,Nc1cc2ccccc2c2ccccc12
21,92.9 °C,COC(=O)CC[C@@H](C)[C@H]1CC[C@H]2[C@@H]3C(=O)C[C@@H]4CCCC[C@]4(C)[C@H]3CC[C@]12C
22,184 °C,O=C(O)CCOc1ccc2c(c1)[nH]c1ccccc12
23,133 °C,CN(C)c1ccc(/C=C(/C#N)c2nc(-c3ccc(Cl)cc3)cs2)cc1

row,melting point,SMILES
1,210 °C,N#C/C(=N/Nc1ccccc1[N+](=O)[O-])c1nc(-c2ccccc2)cs1
2,279 to 281 °C,Cc1ccnc(Nc2nc3ccccc3[nH]2)c1
3,196 °C,O=C(O)c1sccc1Br
4,35 °C,N#Cc1cc(F)c(F)cc1Cl
5,25 °C,O=C(Cl)c1ccc(Br)cc1F
6,295 °C,NC(Cc1ccc(O)c(O)c1)C(=O)O (centres undefined)
7,138 °C,CCc1c(Br)c(Br)c(Br)c(Br)c1Br
8,231 °C,Cc1cc(C)c(NC(N)=S)c(C)c1
9,127 to 129 °C,Cc1nc(-c2ccccn2)nc(Cl)c1Cl
10,28 °C,CCC(=O)c1ccco1
11,81 °C,CC(C)(C)c1ccc2c(c1)-c1cc(C(C)(C)C)ccc1C2
12,92 to 95 °C,Nc1cccc(-c2cnco2)c1
13,209 to 213 °C,Cc1c(O)c(Br)c(Br)c(Br)c1Br
14,22 °C,O=[N+]([O-])c1ccc(Cl)c(C(F)(F)F)c1
15,164 °C,COc1ccc(-n2nc(C(=O)c3cccs3)sc2=N)cc1
16,229 to 230 °C,CC(C)n1c2c(c(=O)[nH]c1=O)CCCC2
17,229 to 232 °C,Cn1c(=O)c(C(N)=S)cn(-c2ccccc2)c1=O
18,191 °C,O=C(NC(Cc1ccc2ccccc2c1)C(=O)O)OCC1c2ccccc2-c2ccccc21 (centres undefined)
19,149 °C,CC(=O)Nc1ccc(S(=O)(=O)Cl)cc1
20,71 to 73 °C,Nc1ccc(OC2CCOCC2)cc1
21,50 to 52 °C,CCOC(=O)c1csc(-c2ccc(F)cc2F)n1
22,91 °C,COc1cc(F)c(C#N)cc1F
23,269 °C,CCc1c(C(=O)O)c(=O)cnn1-c1ccc(Cl)cc1

row,melting point,SMILES
1,-22 °C,Cc1ccc2ncccc2c1
2,124 to 126 °C,C/C=C/C1Nn2c(nnc2-c2ccccc2OC)S1 (centres undefined)
3,99 to 101 °C,CCOC(=O)CSc1nc(C)n[nH]1
4,216 °C,O=C(C1=NOC2C(=O)N(c3cc(Cl)ccc3Cl)C(=O)C12)c1ccc([N+](=O)[O-])cc1 (centres undefined)
5,214 °C,COc1ccc(/N=N/c2sc(/C(C#N)=N/Nc3ccc(F)cc3)nc2C)cc1
6,78 to 80 °C,O=C(Oc1cccc2c1CCC2=O)c1ccccc1
7,103 to 105 °C,CCOC(=O)C(C#N)=C(SC)Sc1ncccn1
8,152 °C,OC1OC(COCc2ccccc2)C(OCc2ccccc2)C(OCc2ccccc2)C1OCc1ccccc1 (centres undefined)
9,10 °C,CCCCCCCCCCCCc1ccccc1S(=O)(=O)O
10,144 to 145 °C,O=S(=O)(NC(=S)Nc1ccccc1)c1ccccc1
11,48 °C,c1ccc(Sc2ccc3ccccc3n2)cc1
12,177 to 178 °C,CC1CCC2(C)C3=C(C(=O)C4(CC4C)C(O)C3=O)C(O)C(O)C2C1C (centres undefined)
13,193 to 194 °C,CCC(C)/N=C(\C)c1c(O)c2ccccc2n(-c2ccccc2)c1=O (centres undefined)
14,224 °C,Cn1c(=O)c(C2=Nc3ccccc3SC(c3cccs3)C2)c(O)c2ccccc21 (centres undefined)
15,87 °C,O=C(O)CC=Cc1ccccc1
16,164 °C,CC(=NCc1ccccc1)c1c(O)c2ccccc2n(-c2ccccc2)c1=O
17,160 to 165 °C,O=C1OC(=O)c2c1cccc2[N+](=O)[O-]
18,44 °C,O=S(=O)(Cl)c1ccc(Oc2ccccc2)cc1
19,82 to 84 °C,N#CCC(=O)c1ccc(OC(F)(F)F)cc1

row,SMILES,melting point
1,CC(=O)CC(c1ccc(Cl)cc1)c1c(O)c2ccccc2oc1=O (centres undefined),170 °C
2,CCCCC(CC)CO[N+](=O)[O-] (centres undefined),75 °C
3,NC(=O)OCCCl,75.5 °C
4,CCc1cc2c(s1)N(C)C(=O)CN=C2c1ccccc1Cl,119 °C
5,Cc1ccc(CCl)cc1[N+](=O)[O-],46 to 50 °C
6,COC(=O)C1(O)c2ccccc2-c2ccc(Cl)cc21 (centres undefined),155 °C
7,CCC(CC)Nc1c([N+](=O)[O-])cc(C)c(C)c1[N+](=O)[O-],58 °C
8,N#CC(C#N)=C1c2cc([N+](=O)[O-])ccc2-c2c1cc([N+](=O)[O-])cc2[N+](=O)[O-],267 °C
9,CC(C)OC(=O)C1=C(C(=O)O)C2c3ccccc3C1c1ccccc12,176 °C
10,COc1cc(CCN)cc(OC)c1OC,35.5 °C
11,CC(=O)CC(c1ccco1)c1c(O)c2ccccc2oc1=O (centres undefined),124 °C
12,O=[N+]([O-])C=Cc1ccccc1C(F)(F)F,60 to 62 °C
13,O=C1/C(=C/c2ccccc2O)SC(=S)N1CN(CCCl)CCCl,233 °C
